Positions of bridges follow the written chain, without caps; N, C: chain ends. Residues, ends and D or L forms follow the SMILES beside them.

For this experiment, the system named is MCF7. Nature of the experiment: Cytotoxicity against human MCF7 cells assessed as decrease in cell viability at 10 uM after 72 hrs by MTT assay. The class given is functional, cell-based. Conditions: MCF7, 72 h. For orientation: Tetrazolium assays rely on reduction of a dye to a coloured formazan, in cell work by metabolically active cells.
As to `CC[C@H](C)[C@@H]1NC(=O)[C@@H]2CSSC[C@@H](C(=O)N[C@@H](Cc3ccc(O)cc3)C(=O)N[C@@H](CCCNC(=N)N)C(=O)N[C@@H](CC(=O)O)C(=O)O)NC(=O)[C@H](C(C)C)NC(=O)[C@H](CCCCN)NC(=O)[C@H](CC(N)=O)NC(=O)[C@H](CCCCN)NC(=O)[C@H]3CSSC[C@H](NC(=O)[C@H](CO)NC(=O)[C@H](CCC(=O)O)NC(=O)CNC(=O)[C@@H](NC(=O)[C@@H]4CCCN4C(=O)[C@@H](NC(=O)[C@@H](NC(=O)CN)C(C)C)[C@@H](C)CC)CSSC[C@@H](NC(=O)CNC(=O)[C@H](CC(C)C)NC(=O)[C@H](C(C)C)NC(=O)[C@H](CO)NC(=O)[C@H](CO)NC1=O)C(=O)N[C@@H](CO)C(=O)N3)C(=O)N[C@@H](C(C)C)C(=O)N[C@@H](Cc1ccccc1)C(=O)N[C@@H]([C@@H](C)CC)C(=O)N1CCC[C@H]1C(=O)N2`, the IC50 stood at 640 nM.
On to `CC[C@H](C)[C@H](NC(=O)CN)C(=O)N[C@@H](C)C(=O)N[C@H]1CSSC[C@H]2NC(=O)CNC(=O)[C@@H]3CCCN3C(=O)[C@H]([C@@H](C)CC)NC(=O)[C@H](Cc3ccccc3)NC(=O)[C@@H]3CSSC[C@@H](C(=O)N[C@@H](Cc4ccc(O)cc4)C(=O)N[C@@H](Cc4ccccc4)C(=O)N[C@@H](CC(N)=O)C(=O)O)NC(=O)[C@H](C(C)C)NC(=O)[C@H](CCCCN)NC(=O)[C@H](CO)NC(=O)[C@H](CCCCN)NC(=O)[C@H](CSSC[C@H](NC(=O)[C@H](CO)NC(=O)[C@H](CCC(=O)O)NC(=O)CNC1=O)C(=O)N[C@@H](C(C)C)C(=O)N[C@@H](Cc1ccccc1)C(=O)N[C@@H](CC(C)C)C(=O)NCC(=O)N3)NC(=O)[C@H](CO)N2`, for which the IC50 is 7770 nM.
For the molecule `CC(C)C[C@H](NC(=O)[C@@H](N)CCCCN)C(=O)N[C@H]1CSSC[C@@H]2NC(=O)[C@H](CO)NC(=O)[C@H](CS)NC(=O)CNC(=O)[C@@H]3CCCN3C(=O)[C@H]([C@@H](C)O)NC(=O)[C@H](Cc3ccc(O)cc3)NC(=O)[C@@H]3CSSC[C@@H](C(=O)N[C@@H](CCCCN)C(=O)O)NC(=O)[C@H](Cc4ccccc4)NC(=O)[C@@H]4CCCN4C(=O)[C@H](Cc4ccc(O)cc4)NC(=O)[C@H](CO)NC(=O)[C@H](CSSC[C@H](NC(=O)[C@H]([C@@H](C)O)NC(=O)[C@H](CCC(=O)O)NC(=O)CNC1=O)C(=O)N[C@@H](Cc1ccccc1)C(=O)N[C@@H](CCCCN)C(=O)N[C@@H](Cc1ccccc1)C(=O)N[C@@H](CCCCN)C(=O)N3)NC(=O)[C@H](CO)NC2=O` (H-KLCGETCFKFKCYTPGCSCSCSYPFCK-OH; disulfide 3-19, 7-21, 12-26), the IC50 came out at 2980 nM.

By IC50 is commonly meant the concentration at which inhibition is half-maximal.

The record behind these values is ChEMBL document CHEMBL4002558, “Characterization of a Bioactive Acyclotide from Palicourea rigida” (J Nat Prod, 2016).
